Results taken from PMC8112869, “Therapeutic inhibition of keratinocyte TRPV3 sensory channel by local anesthetic dyclonine” (eLife, 2021).

Assays:
Type in all cases: cell-based
[1] = molecular target: T1, TRPV3 F666A (Mus musculus, UniProt Q8K424, F666A); test: Whole-cell recording of TRPV3 mutant F666A in HEK 293T cells; settings: 2-APB (1 mM)-evoked, –60 mV, read-out: IC50 for inhibition of TRPV3 mutant
T1 construct: expressed in transfected cells; host or cells: HEK 293T
Source text: (§1) The WT mouse TRPV3 (mTRPV3), human TRPV3 (hTRPV3), rat TRPV1, rat TRPV2, rat TRPM8, and mouse TRPA1 cDNAs were generously provided by Dr. Feng Qin (State University of New York at Buffalo, Buffalo, USA). The GFP-mTRPV3 WT and the mutants (mTRPV3-G573S and mTRPV3-G573C) in pcDNA4/TO vector were gifts from Dr. Michael X Zhu (The University of Texas Health Science Center at Houston, Houston, USA). The WT fTRPV3 was kindly provided by Dr. Makoto Tominaga (Department of Physiological Sciences, SOKENDAI, Okazaki, Japan). All mutations were made using the overlap-extension polymerase chain reaction method as previously described ([Tian et al., 2019]). The resulting mutations were then verified by DNA sequencing. […]
(§2) Conventional whole-cell and excised patch-clamp recording methods were used. […] For a subset of recordings, currents were amplified using an Axopatch 200B amplifier (Molecular Devices, Sunnyvale, CA) and recorded through a BNC-2090/MIO acquisition system (National Instruments, Austin, TX) using QStudio developed by Dr. Feng Qin at State University of New York at Buffalo. […] As determined by the conductance tests, the solution around a patch under study was fully controlled by the application of a flow rate of 100 μl/min or greater. […]

[2] = molecular target: T2, TRPV3 L642A (Mus musculus, UniProt Q8K424, L642A); test: Whole-cell recording of TRPV3 mutant L642A in HEK 293T cells; settings: 2-APB (1 mM)-evoked, –60 mV, read-out: IC50 for inhibition of TRPV3 mutant
T2 construct: expressed in transfected cells; host or cells: HEK 293T
Source text: as §1, §2

[3] = molecular target: T3, TRPM8 (Rattus norvegicus, UniProt Q8R455); test: Whole-cell recording of menthol-activated TRPM8 in HEK 293T cells
T3 construct: expressed in transfected cells; host or cells: HEK 293T
Source text: as §1, §2

[4] = molecular target: T4, TRPV3 I644W (Mus musculus, UniProt Q8K424, I644W); test: Whole-cell recording of TRPV3 mutant I644W in HEK 293T cells; settings: 2-APB (1 mM)-evoked, –60 mV, read-out: IC50 for inhibition of TRPV3 mutant
T4 construct: expressed in transfected cells; host or cells: HEK 293T
Source text: as §1, §2

T3 sequence (Q8R455 whole entry): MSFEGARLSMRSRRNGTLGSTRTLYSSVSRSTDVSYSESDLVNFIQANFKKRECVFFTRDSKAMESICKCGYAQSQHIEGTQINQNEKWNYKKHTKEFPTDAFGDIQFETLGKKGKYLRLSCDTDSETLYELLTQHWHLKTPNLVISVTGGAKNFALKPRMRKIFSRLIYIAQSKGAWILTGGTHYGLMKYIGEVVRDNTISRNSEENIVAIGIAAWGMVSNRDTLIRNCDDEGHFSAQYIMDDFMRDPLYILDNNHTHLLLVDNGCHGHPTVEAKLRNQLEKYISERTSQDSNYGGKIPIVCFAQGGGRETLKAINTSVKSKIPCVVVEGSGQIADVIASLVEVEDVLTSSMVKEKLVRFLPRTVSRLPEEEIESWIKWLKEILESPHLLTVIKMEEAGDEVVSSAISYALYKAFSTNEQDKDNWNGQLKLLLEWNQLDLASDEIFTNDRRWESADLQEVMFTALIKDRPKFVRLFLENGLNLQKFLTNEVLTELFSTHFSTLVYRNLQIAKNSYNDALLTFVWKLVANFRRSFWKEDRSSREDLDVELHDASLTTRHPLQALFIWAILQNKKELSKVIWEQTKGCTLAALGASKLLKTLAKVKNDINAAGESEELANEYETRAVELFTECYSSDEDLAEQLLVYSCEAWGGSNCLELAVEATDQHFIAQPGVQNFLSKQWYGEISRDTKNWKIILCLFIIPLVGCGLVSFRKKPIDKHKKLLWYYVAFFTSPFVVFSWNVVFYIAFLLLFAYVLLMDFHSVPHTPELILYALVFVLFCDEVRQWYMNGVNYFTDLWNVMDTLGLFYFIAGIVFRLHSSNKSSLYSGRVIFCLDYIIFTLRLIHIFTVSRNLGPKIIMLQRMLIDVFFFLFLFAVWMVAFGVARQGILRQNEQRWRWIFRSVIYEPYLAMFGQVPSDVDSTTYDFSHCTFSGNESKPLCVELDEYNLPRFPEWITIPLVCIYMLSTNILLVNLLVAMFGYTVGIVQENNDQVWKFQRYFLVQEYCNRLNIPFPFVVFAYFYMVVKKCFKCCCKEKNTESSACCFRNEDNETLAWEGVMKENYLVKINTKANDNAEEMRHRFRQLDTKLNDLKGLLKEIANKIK
T1 sequence (Q8K424 whole entry F666A): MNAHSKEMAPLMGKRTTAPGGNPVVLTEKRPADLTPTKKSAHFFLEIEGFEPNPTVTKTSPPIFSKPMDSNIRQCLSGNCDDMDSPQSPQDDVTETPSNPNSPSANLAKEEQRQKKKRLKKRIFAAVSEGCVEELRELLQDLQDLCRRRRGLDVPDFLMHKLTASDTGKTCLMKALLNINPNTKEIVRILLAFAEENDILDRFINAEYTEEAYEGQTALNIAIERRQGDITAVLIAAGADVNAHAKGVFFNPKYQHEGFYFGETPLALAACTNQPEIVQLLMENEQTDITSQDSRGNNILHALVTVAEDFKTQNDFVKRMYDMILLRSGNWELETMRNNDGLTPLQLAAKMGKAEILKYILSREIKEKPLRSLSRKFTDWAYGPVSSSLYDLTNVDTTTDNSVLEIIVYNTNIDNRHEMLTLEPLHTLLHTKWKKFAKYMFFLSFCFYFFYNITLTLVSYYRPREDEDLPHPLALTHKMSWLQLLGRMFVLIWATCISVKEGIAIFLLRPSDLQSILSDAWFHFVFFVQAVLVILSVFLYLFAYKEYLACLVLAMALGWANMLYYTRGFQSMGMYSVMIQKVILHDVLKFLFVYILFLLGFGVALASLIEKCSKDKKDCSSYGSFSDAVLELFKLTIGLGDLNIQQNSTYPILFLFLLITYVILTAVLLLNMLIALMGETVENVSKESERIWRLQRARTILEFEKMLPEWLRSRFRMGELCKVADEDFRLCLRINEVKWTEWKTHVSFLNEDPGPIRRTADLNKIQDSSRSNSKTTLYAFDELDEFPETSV
T4 sequence (Q8K424 whole entry I644W): as the sequence (Q8K424 whole entry F666A) above, with I644W, A666F counted along it
T2 sequence (Q8K424 whole entry L642A): as the sequence (Q8K424 whole entry F666A) above, with L642A, A666F counted along it

IC50 [1]: 414 ± 15.7 µM
IC50 [2]: 0.25 ± 0.02 µM
Hill coefficient nH [3]: 1.2 ± 0.20
reduction in current amplitude ([3]; 10 μM dyclonine, menthol-activated): 9% ± 2%
IC50 [4]: 26.1 ± 2.8 µM
Structure (SMILES): CCCCOc1ccc(C(=O)CCN2CCCCC2)cc1 [dyclonine]
